Data on 6 compounds can be found in ChEMBL document CHEMBL5532738, “Chiral Me-2-arachidonoyl Glycerols: The First Potent Endocannabinoid Glyceride Templates with Stability to COX-2” (ACS Med Chem Lett, 2024).

Holding throughout (assay type): functional, cell-based
One test concerns the target Cannabinoid receptor 2 (Mus musculus, UniProt P47936). Put plainly: Agonist activity at mouse CB2 receptor stably expressed in HEK293 cells assessed as inhibition of forskolin-stimulated cAMP accumulation incubated for 5 mins by Lance Ultra cAMP assay.
The next test concerns the target Cannabinoid receptor 1 (Rattus norvegicus, UniProt P20272). The experiment in a line: Agonist activity at rat CB1 receptor stably expressed in HEK293 cells assessed as inhibition of forskolin-stimulated cAMP accumulation incubated for 5 mins by Lance Ultra cAMP assay. On the technique in general: Changes in cAMP serve as a functional read-out for many G protein-coupled receptors.

Test [1] deals with Cannabinoid receptor 1 (Rattus norvegicus) (UniProt P20272). The experiment in a line: Agonist activity at rat CB1 receptor stably expressed in HEK293 cells assessed as inhibition of forskolin-stimulated cAMP accumulation incubated for 5 mins by Lance Ultra cAMP assay relative to control. The conditions noted are these: filed as agonist.
Chain of Cannabinoid receptor 1 (Rattus norvegicus) (P20272 whole entry): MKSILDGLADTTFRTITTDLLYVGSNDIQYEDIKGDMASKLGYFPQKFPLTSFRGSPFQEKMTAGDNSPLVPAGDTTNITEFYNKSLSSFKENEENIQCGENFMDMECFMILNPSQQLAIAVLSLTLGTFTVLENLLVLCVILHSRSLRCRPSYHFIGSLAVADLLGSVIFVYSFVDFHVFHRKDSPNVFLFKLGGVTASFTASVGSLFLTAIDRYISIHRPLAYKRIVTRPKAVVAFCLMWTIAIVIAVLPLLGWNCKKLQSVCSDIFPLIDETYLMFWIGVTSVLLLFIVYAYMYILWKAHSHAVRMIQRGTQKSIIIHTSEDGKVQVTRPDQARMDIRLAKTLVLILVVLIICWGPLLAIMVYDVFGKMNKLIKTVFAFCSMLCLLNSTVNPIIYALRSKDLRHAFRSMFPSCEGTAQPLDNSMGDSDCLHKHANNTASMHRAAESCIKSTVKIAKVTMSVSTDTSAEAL
Test [2] addresses Cannabinoid receptor 2 (Mus musculus) (UniProt P47936). The experiment in a line: Agonist activity at mouse CB2 receptor stably expressed in HEK293 cells assessed as inhibition of forskolin-stimulated cAMP accumulation incubated for 5 mins by Lance Ultra cAMP assay relative to control.

Structures are written as SMILES.

Chain of Cannabinoid receptor 1 (P20272 whole entry): as above
Chain of Cannabinoid receptor 2 (Mus musculus) (P47936 whole entry): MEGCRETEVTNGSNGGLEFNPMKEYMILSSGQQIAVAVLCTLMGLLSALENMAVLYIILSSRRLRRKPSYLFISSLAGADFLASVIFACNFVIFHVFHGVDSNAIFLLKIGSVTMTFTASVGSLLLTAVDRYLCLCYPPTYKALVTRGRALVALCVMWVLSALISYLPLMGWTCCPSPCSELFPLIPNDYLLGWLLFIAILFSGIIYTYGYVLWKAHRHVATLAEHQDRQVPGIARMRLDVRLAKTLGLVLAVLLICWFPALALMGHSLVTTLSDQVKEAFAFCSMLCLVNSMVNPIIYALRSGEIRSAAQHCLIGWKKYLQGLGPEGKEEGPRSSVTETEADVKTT
Chain of Cannabinoid receptor 2 (P47936 whole entry): as above

What is called EC50 is the concentration giving half of the maximal effect. The Emax is the size of the effect at its maximum, as opposed to the concentration needed. With `CCCCC/C=C\[C@H](C)/C=C\C/C=C\C/C=C\CCCC(=O)OC(CO)CO`, the EC50 at Cannabinoid receptor 2 came out at 53 nM; at Cannabinoid receptor 1, 17 nM. Further, the Emax in test [1] was 51.2%; in test [2] (filed as agonist) it was 50.1%.
With `CCCCC/C=C\C/C=C\C/C=C\C/C=C\CCCC(=O)OC(CO)CO` [2-ARACHIDONOYLGLYCEROL], on Cannabinoid receptor 2, the EC50 came to 18 nM. In addition, the values for the Emax in test [1] and in test [2] were 47.7% and 35.2%, respectively.
In the case of `CCCCCCC(C)(C)c1ccc([C@@H]2C[C@H](O)CC[C@H]2CCCO)c(O)c1` [CP-55940], the EC50 on Cannabinoid receptor 2 was 7 nM. In addition, the Emax was 67.1% in test [1] and 54.4% in test [2] (filed as agonist).
Regarding `CCCCC/C=C\C/C=C\C/C=C\[C@@H](C)/C=C\CCCC(=O)OC(CO)CO`, the EC50 on Cannabinoid receptor 1 was determined as 34.6 nM. In addition, the results for the Emax in test [1] and in test [2] were 74.8% and under 1%, respectively.
With `CCCCC/C=C\[C@@H](C)/C=C\C/C=C\C/C=C\CCCC(=O)OC(CO)CO`, the EC50 at Cannabinoid receptor 2 amounted to 50 nM; on Cannabinoid receptor 1, 7 nM. The figures for the Emax in test [1] and in test [2] (filed as agonist) were 51.6% and 42.8%, respectively.
In the case of `CCCCC/C=C\C/C=C\C/C=C\[C@H](C)/C=C\CCCC(=O)OC(CO)CO`, the EC50 was determined as 6 nM at Cannabinoid receptor 2 and 23.1 nM on Cannabinoid receptor 1. The Emax came out at 48.7% in test [1] and 24.6% in test [2].
